Experimental data from patent US20240180878A1, “AMIDE DERIVATIVES OF BUTYRIC ACID FOR USE IN THE TREATMENT OR PREVENTION OF SARS-COV-2 INFECTION” (RHEA INNOVATIONS S.R.L., priority 2021, published 2024).

Key:
ACE2 [1] = test: Human respiratory epithelial cell line Calu3, qRT-PCR gene expression; assay type: cell-based; conditions: Calu3 cells, 2 mM FBA, 24 h of incubation
TMPRSS2 [2] = test: Small intestinal biopsy organ culture, qRT-PCR gene expression; assay type: cell-based; conditions: human small intestine biopsies, 2 mM FBA for 24 h vs medium alone
TNF-α [3] = test: Human respiratory epithelial cell line Calu3, qRT-PCR gene expression; assay type: cell-based; conditions: Calu3 cells, 2 mM FBA, 24 h of incubation
[4] = system: SARS-CoV-2 wild-type strain; assay type: cell-based; conditions: Caco-2 pretreated with 2 mM FBA for 24 h, then 1 MOI wild-type SARS-CoV-2 for 72 h
TMPRSS2 [5] = test: Human enterocytes cell line (Caco-2), qRT-PCR gene expression; assay type: cell-based; conditions: Caco-2 cells, 2 mM FBA (maximal effective dose), 24 h of incubation
ACE2 [6] = test: SARS-CoV-2 infection model in Caco-2 cells, expression (qRT-PCR, Western blotting); assay type: cell-based, human; conditions: Caco-2 pretreated with 2 mM FBA for 24 h, then 1 MOI wild-type SARS-CoV-2 for 72 h
Protocol: (§1) The SARS-CoV-2 infection was performed on Caco-2, at 15 days post-confluence, using SARS-CoV-2 wild-type strain. Before the infection, cells were incubated with 2 mM of FBA for 24 h at 37° C. 1 MOI of SARS-CoV-2 was added to the Caco-2 monolayer for 72 h. Then, SARS-CoV-2 inoculum was removed, the cells were washed three times with PBS 1× and were harvested for RNA, proteins extraction and for fluorescence microscopy analysis.
RNA samples were extracted, processed and analyzed as described above. Western blotting was performed on the total protein extracts of infected Caco-2 cells pretreated with FBA. For the total protein fraction, the harvested cells were washed in cold phosphate-buffered saline (PBS) and lysed in protein lysis buffer (RIPA). Protein concentrations in cell extracts were determined using the Bradford assay (BioRad, Milan, Italy). Thirty microgram total lysates were loaded onto 10% SDS-PAGE and then transferred to nitrocellulose membranes (ImmobilonR-Transfer Membrane, Tullagreen, Carrigtwohill, Co). […]
Western blotting was performed on the total protein extracts of infected Caco-2 cells pretreated with FBA. […] Protein concentrations in cell extracts were determined using the Bradford assay (BioRad, Milan, Italy). […]

MCP-1 [7] = test: Human respiratory epithelial cell line Calu3, qRT-PCR gene expression; assay type: cell-based; conditions: Calu3 cells, 2 mM FBA, 24 h of incubation
[8] = system: monocyte chemoattractant protein-1 (MCP-1); test: Small intestinal biopsy organ culture, qRT-PCR gene expression; assay type: cell-based; conditions: human small intestine biopsies, 2 mM FBA vs medium alone
IL-15 [9] = test: Human respiratory epithelial cell line Calu3, qRT-PCR gene expression; assay type: cell-based; conditions: Calu3 cells, 2 mM FBA, 24 h of incubation
TNF-α [10] = test: SARS-CoV-2 infection model in Caco-2 cells, gene expression; assay type: cell-based, human; conditions: Caco-2 pretreated with 2 mM FBA for 24 h, then 1 MOI wild-type SARS-CoV-2 for 72 h
Protocol: as §1
(§2) RNA samples were extracted, processed and analyzed as described above. Western blotting was performed on the total protein extracts of infected Caco-2 cells pretreated with FBA. For the total protein fraction, the harvested cells were washed in cold phosphate-buffered saline (PBS) and lysed in protein lysis buffer (RIPA). Protein concentrations in cell extracts were determined using the Bradford assay (BioRad, Milan, Italy). Thirty microgram total lysates were loaded onto 10% SDS-PAGE and then transferred to nitrocellulose membranes (ImmobilonR-Transfer Membrane, Tullagreen, Carrigtwohill, Co). The membranes were blocked with 5% non-fat milk in PBS, pH 7.6, 0.2% Tween 20 (PanReac AppliChem) and probed overnight at 4° C. with the specific primary antibodies for ACE2 (1:2000; Abcam). After washing in PBS, pH 7.6, 0.2% Tween 20, the membranes were incubated with a horseradish peroxidase-conjugated goat anti-rabbit antibody (1:2000; Abcam). The immunoblots were visualized using ECL detection kits, with enhanced chemiluminescence (Pierce, Rockford, IL, USA). A mouse β-actin antibody (1:5000; Elabscience) was used as the control for equal loading of total lysates.

CXCL1 = test: as above; assay type: cell-based, human; conditions: Caco-2 pretreated with 2 mM FBA for 24 h, then 1 MOI wild-type SARS-CoV-2 for 72 h
Protocol: as §1, §2

TMPRSS2 [11] = test: as above; assay type: cell-based, human; conditions: Caco-2 pretreated with 2 mM FBA for 24 h, then 1 MOI wild-type SARS-CoV-2 for 72 h
Protocol: as §1, §2

MCP-1 [12] = test: as above; assay type: cell-based, human; conditions: Caco-2 pretreated with 2 mM FBA for 24 h, then 1 MOI wild-type SARS-CoV-2 for 72 h
Protocol: as §1, §2

VEGFβ = test: as above; assay type: cell-based, human; conditions: Caco-2 pretreated with 2 mM FBA for 24 h, then 1 MOI wild-type SARS-CoV-2 for 72 h
Protocol: as §1, §2

ACE2 [13] = test: Human enterocytes cell line (Caco-2), qRT-PCR gene expression; assay type: cell-based; conditions: Caco-2 cells, 2 mM FBA (maximal effective dose), 24 h of incubation
[14] = system: tumor necrosis factor-alpha (TNF-α); test: Small intestinal biopsy organ culture, qRT-PCR gene expression; assay type: cell-based; conditions: human small intestine biopsies, 2 mM FBA vs medium alone
IL-15 [15] = test: Human enterocytes cell line (Caco-2), qRT-PCR gene expression; assay type: cell-based; conditions: Caco-2 cells, 2 mM FBA (maximal effective dose), 24 h of incubation
IL-1β = test: SARS-CoV-2 infection model in Caco-2 cells, gene expression; assay type: cell-based, human; conditions: Caco-2 pretreated with 2 mM FBA for 24 h, then 1 MOI wild-type SARS-CoV-2 for 72 h
MCP-1 [16] = test: Human enterocytes cell line (Caco-2), qRT-PCR gene expression; assay type: cell-based; conditions: Caco-2 cells, 2 mM FBA (maximal effective dose), 24 h of incubation
TNF-α [17] = test: as above; assay type: cell-based; conditions: Caco-2 cells, 2 mM FBA (maximal effective dose), 24 h of incubation
interleukin (IL)-15 = test: Small intestinal biopsy organ culture, qRT-PCR gene expression; assay type: cell-based; conditions: human small intestine biopsies, 2 mM FBA vs medium alone
ACE2 [18] = test: as above; assay type: cell-based; conditions: human small intestine biopsies, 2 mM FBA for 24 h vs medium alone
TMPRSS2 [19] = test: Human respiratory epithelial cell line Calu3, qRT-PCR gene expression; assay type: cell-based; conditions: Calu3 cells, 2 mM FBA, 24 h of incubation

With `CCCC(=O)NC(Cc1ccccc1)C(N)=O` (centres unmarked) [FBA, N-(1-carbamoyl-2-phenyl-ethyl) butyramide] the “expression of ACE2” value (ACE2 [1]) was “downregulate”, the “expression of TMPRSS2” value (TMPRSS2 [2]) was “significantly decreased” and the “expression of TNF-α” value (TNF-α [3]) was “downregulate”. For the same molecule, the virus entry [4] was “inhibit”, the TMPRSS2 expression (TMPRSS2 [5]) was “significantly reduce” and the ACE2 expression (ACE2 [6]) was “inhibit”. For the same molecule, the “expression of MCP-1” value (MCP-1 [7]) was “downregulate”, the “expression of MCP-1” value [8] was “significant reduction” and the “expression of IL-15” value (IL-15 [9]) was “downregulate”. The “expression of TNF-α” value (TNF-α [10]) was “inhibit”, the “expression of CXCL1” value (CXCL1) was “inhibit” and the TMPRSS2 expression (TMPRSS2 [11]) was “inhibit”. For the same molecule, the “expression of MCP-1” value (MCP-1 [12]) was “inhibit”, the “expression of VEGFβ” value (VEGFβ) was “inhibit” and the ACE2 expression (ACE2 [13]) was “significantly reduce”. For the same molecule, the “expression of TNF-α” value [14] was “significant reduction”, the IL-15 expression (IL-15 [15]) was “significantly reduce” and the “expression of IL-1β” value (IL-1β) was “inhibit”. For the same molecule, the MCP-1 expression (MCP-1 [16]) was “significantly reduce”, the TNF-α expression (TNF-α [17]) was “significantly reduce” and the “expression of interleukin (IL)-15” value (interleukin (IL)-15) was “significant reduction”. The “expression of ACE2” value (ACE2 [18]) was “significantly decreased” and the “expression of TMPRSS2” value (TMPRSS2 [19]) was “downregulate”.
